What is called IC50 is the concentration at which inhibition is half-maximal.

Assay [1] addresses T1, mitochondrial pyruvate carrier (MPC) (Homo sapiens, UniProt O95563+Q9Y5U8).
T1 sequence (Q9Y5U8 1-109): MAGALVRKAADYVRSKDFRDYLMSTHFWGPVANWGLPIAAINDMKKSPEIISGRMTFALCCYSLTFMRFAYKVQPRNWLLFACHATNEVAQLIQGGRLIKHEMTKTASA
T1 sequence (O95563 1-127): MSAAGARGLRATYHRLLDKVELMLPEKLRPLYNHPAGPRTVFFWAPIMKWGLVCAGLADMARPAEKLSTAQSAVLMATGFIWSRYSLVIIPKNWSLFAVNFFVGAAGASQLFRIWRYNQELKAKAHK
Description: Bret IC50, inhibitory activity against MPC. The class given is cell-based. The source says: (§1) The inhibition of mitochondrial pyruvate carrier (MPC) by compounds of the invention have been tested as follows and their inhibitory activity was expressed as IC50s values.
Table 2 below presents the IC50s of the compounds of the invention.

Assay [2] concerns the target T1, mitochondrial pyruvate carrier (MPC). The assay can be described thus: Seahorse Xfe24 pyruvate-dependent OCR in HeLa cells. The class given is cell-based. The following applies: pyruvate-dependent OCR in presence of fCCP. The method, then: as §1
Cells are plated in the customized Seahorse plates. For HeLa cells, seeding is at 4×10^4 cells/well in […] DMEM, 10% FBS, 1% pen/strep/glutamine. 3 wells are left blank (medium alone) for internal calibration. The assay cartridge is hydrated overnight at 37° C. in 1 ml/well XF Calibrant Solution.
Since 50 μl of compound of the invention will be injected into 450 μl washed cells, compounds are made up in assay medium at 10× the final desired concentration
For dose response analyses, compounds are tested at final concentrations 30, 5, 0.83, 0.14, 0.023 μM (1:6 serial dilutions from […])
Positive control: […] (the parent hit compound which gave rise to the actual series)
Negative control: Assay medium alone.
The seahorse reagent plate is prepared as follows and transfered to the Xfe24 analyser for the calibration step:
The medium is almost completely removed from the well without allowing cells to dry Cells are washed twice with 300 μl Assay Medium. 450 μl fresh Assay Medium is added to each well. The plate is transferred to the Xfe24 analyser for measurement of pyruvate-dependent OCR. All values are normalized to the initial basal respiration rate in each well which is measured prior to addition of compounds and designated as 100%. IC50 determination is based on the average of the 3 measurements made in the presence of fCCP, taking 30 μM parent hit compound as maximal inhibition and PBS/Ca/Mg as zero inhibition.

Assay [3] concerns CD8 T cells (OT1 splenocytes). The assay can be described thus: In vitro priming of CD8 T cells (OT1 splenocytes), memory marker expression by flow cytometry. The class given is cell-based, mouse. The following applies: day 7, highest doses. The protocol:
OT1 splenocytes were cultured for 3 days at a concentration of 10^6 cells per mL in RPMI medium (Gibco 61870-01) supplemented with 10% FBS, (Gibco 10270-106), 1% Penicillin/Streptomycin (Gibco 15070-063), 50 μM ß-mercaptoethanol, 1% HEPES (Gibco 15630-080), 1× Non-essential amino acids (Gibco 11140-035), 1% L-glutamine (Gibco 25030-081), 1 mM Sodium Pyruvate (Gibco 11360-039). Cells were additionally supplemented with hIL-2 100 U/ml (Glaxo-IMB), ovalbumin N4 peptide (257-264) 1 μg/ml (model peptide antigen from ovalbumin) and either different concentrations of Compound 45 or 47 or with their solvent DMSO as a control. At day 3, splenocytes were collected, washed and split, and cells were cultured for 4 additional days with 100 U/ml hIL-2 and hIL-7 (Peprotech 200-07) supplemented either with Compound 45 or 47 or DMSO. At day 7, flow cytometry analyses were performed for surface marker expression.
To evaluate the effects of MPC inhibition on T cell differentiation, OTI splenocytes were cultured in the presence of 1 μg/ml ovalbumin-derived N4 peptide, 100 IU/ml recombinant human IL-2 (rhIL-2) and the MPC inhibitors Compound 45 or 47 or control DMSO for 3 days. The cells were cultured for 4 more days in the presence of 100 IU/ml IL-2 and 10 ng/ml rhIL-7 (FIG. 1A) and the inhibitors or DMSO. When analyzing the surface expression of the central memory marker CD62L (FIG. 1B) and the pro-survival receptor CD127 (FIG. 1C) by flow cytometry on day 7, an increase in cells treated with the highest doses of compounds of the invention was observed compared to DMSO.
Background: Flow cytometry measures light scatter and fluorescence of single cells or particles in a stream.

On to `CCCc1cc(=O)[nH]c2nnc(SCCc3ccccc3)n12` [Compound 14, 3-[(2-phenylethyl)sulfanyl]-5-propyl[1,2,4]triazolo[4,3-a]pyrimidin-7 (8H)-one], for which half-maximal inhibition in assay [1] (IC50) required 1.75 µM.
On the same count and under the same terms, the result for `CCCc1cc(=O)[nH]c2nnc(SCc3ccc4occc4c3)n12` [Compound 19, 3-[(1-benzofuran-5-ylmethyl)sulfanyl]-5-propyl[1,2,4]triazolo[4,3-a]pyrimidin-7 (8H)-one] reads 3.48 µM; that for `COCc1cc(=O)[nH]c2nnc(SCc3cc(F)ccc3F)n12` [Compound 31, 3-[(2,5-difluorobenzyl)sulfanyl]-5-(methoxymethyl) [1,2,4]triazolo[4,3-a]pyrimidin-7 (8H)-one], 5.66 µM.
The compound `CCCc1cc(=O)[nH]c2nnc(SCc3cccc(OC)c3)n12` [Compound 17, 3-[(3-methoxybenzyl)sulfanyl]-5-propyl[1,2,4]triazolo[4,3-a]pyrimidin-7 (8H)-one] had an IC50 in assay [1] of 2.03 µM.
For `CCCc1cc(=O)[nH]c2nnc(SCc3cc(F)ccc3OC)n12` [Compound 9, 3-[(5-fluoro-2-methoxybenzyl)sulfanyl]-5-propyl[1,2,4]triazolo[4,3-a]pyrimidin-7 (8H)-one], the IC50 in assay [1] was 0.878 µM; in assay [2] it was 0.185 µM.
In the case of `CCCc1cc(=O)[nH]c2nnc(SCc3c(C)cccc3C)n12` [Compound 25, 3-[(2,6-dimethylbenzyl)sulfanyl]-5-propyl[1,2,4]triazolo[4,3-a]pyrimidin-7 (8H)-one], the IC50 was 0.593 µM in assay [1] and 0.171 µM in assay [2].
With `CCCc1c(C)c(=O)[nH]c2nnc(SCc3c(F)cccc3Cl)n12` [Compound 48, 3-[(2-chloro-6-fluorobenzyl)sulfanyl]-6-methyl-5-propyl[1,2,4]triazolo[4,3-a]pyrimidin-7 (8H)-one], the IC50 in assay [1] worked out at 0.873 µM.
`O=c1cc(CC2CC2)n2c(SCc3c(F)cccc3Cl)nnc2[nH]1` [Compound 41, 3-[(2-chloro-6-fluorobenzyl)sulfanyl]-5-(cyclopropylmethyl) [1,2,4]triazolo[4,3-a]pyrimidin-7 (8H)-one] had an IC50 in assay [1] of 0.129 µM.
The same measure, in the same setting: as for `CCCc1cc(=O)[nH]c2nnc(SCc3ccc(C#N)cc3)n12` [Compound 18, 4-{[(7-oxo-5-propyl-7,8-dihydro[1,2,4]triazolo[4,3-a]pyrimidin-3-yl)sulfanyl]methyl}benzonitrile], the figure is 4.21 µM; as for `CCCc1cc(=O)[nH]c2nnc(SCc3cc(F)ccc3C#N)n12` [Compound 8, 4-fluoro-2-{[(7-oxo-5-propyl-7,8-dihydro[1,2,4]triazolo[4,3-a]pyrimidin-3-yl)sulfanyl]methyl}benzonitrile], 5.39 µM.
For `CCCc1cc(=O)[nH]c2nnc(Sc3ccccc3)n12` [Compound 47, 3-(phenylsulfanyl)-5-propyl[1,2,4]triazolo[4,3-a]pyrimidin-7 (8H)-one], the figures for the IC50 in assay [1] and in assay [2] were 0.167 µM and 0.184 µM, respectively. Also, the “cells positive for central memory marker CD62L” value in assay [3] (vs DMSO (FIG. 1B)) was “increase”. For the same compound, the “cells positive for pro-survival receptor CD127” value in assay [3] (vs DMSO (FIG. 1C)) was “increase”.
Regarding `O=c1cc(CCOCc2ccccc2)n2c(SCc3cc(F)ccc3F)nnc2[nH]1` [Compound 30, 5-[2-(benzyloxy)ethyl]-3-[(2,5-difluorobenzyl)sulfanyl][1,2,4]triazolo[4,3-a]pyrimidin-7 (8H)-one], the values for the IC50 in assay [1] and in assay [2] were 0.943 µM and 1.65 µM, respectively.
In turn, `N#Cc1ccc(CSc2nnc3[nH]c(=O)cc(Cc4ccccc4)n23)cc1` [Compound 46, 4-{[(5-benzyl-7-oxo-7,8-dihydro[1,2,4]triazolo[4,3-a]pyrimidin-3-yl)sulfanyl]methyl}benzonitrile] showed an IC50 in assay [1] of 4.69 µM.
Compound `O=c1cc(C2CC2)n2c(SCc3c(F)cccc3Cl)nnc2[nH]1` [Compound 39, 3-[(2-chloro-6-fluorobenzyl)sulfanyl]-5-cyclopropyl[1,2,4]triazolo[4,3-a]pyrimidin-7 (8H)-one] registered an IC50 in assay [1] of 0.593 µM.
In the case of `CCCc1cc(=O)[nH]c2nnc(SCc3cc(F)ccc3C)n12` [Compound 12, 3-[(5-fluoro-2-methylbenzyl)sulfanyl]-5-propyl[1,2,4]triazolo[4,3-a]pyrimidin-7 (8H)-one], the IC50 in assay [1] was 0.561 µM; in assay [2], 0.158 µM.
With `CCCc1cc(=O)[nH]c2nnc(CCc3ccccc3)n12` [Compound 51, 3-(2-phenylethyl)-5-propyl[1,2,4]triazolo[4,3-a]pyrimidin-7 (8H)-one], inhibition in assay [1] was half-maximal at 3.65 µM (IC50).
`Cc1cc(=O)[nH]c2nnc(SCc3cc(F)ccc3F)n12` [Compound 29, 3-[(2,5-difluorobenzyl)sulfanyl]-5-methyl[1,2,4]triazolo[4,3-a]pyrimidin-7 (8H)-one] yielded an IC50 in assay [1] of 5.81 µM.
For the compound `CCCc1cc(=O)[nH]c2nnc(S(=O)(=O)Cc3c(F)cccc3Cl)n12` [Compound 50, 3-[(2-chloro-6-fluorobenzyl)sulfonyl]-5-propyl[1,2,4]triazolo[4,3-a]pyrimidin-7 (8H)-one], the IC50 in assay [1] amounted to 11.2 µM.
With `O=c1cc(CCOCc2ccccc2)n2c(SCc3c(F)cccc3Cl)n[nH]c2n1` [Compound 43, 5-[2-(benzyloxy)ethyl]-3-[(2-chloro-6-fluorobenzyl)sulfanyl][1,2,4]triazolo[4,3-a]pyrimidin-7 (1H)-one], the IC50 in assay [1] is 0.814 µM; in assay [2], 0.289 µM.
`CCCc1cc(=O)[nH]c2nnc(SCc3cccc4ccccc34)n12` [Compound 90, 3-[(naphthalen-1-ylmethyl)sulfanyl]-5-propyl[1,2,4]triazolo[4,3-a]pyrimidin-7 (8H)-one] yielded an IC50 in assay [1] of 2.5 µM.
In assay [1], `CCCc1cc(=O)[nH]c2nnc(SCc3cc(F)cc(F)c3)n12` [Compound 3, 3-[(3,5-difluorobenzyl)sulfanyl]-5-propyl[1,2,4]triazolo[4,3-a]pyrimidin-7 (8H)-one] showed an IC50 of 2.2 µM.
Take `O=c1cc(CCOCc2ccccc2Cl)n2c(SCc3cc(F)ccc3F)nnc2[nH]1` [Compound 33, 5-{2-[(2-chlorobenzyl)oxy]ethyl}-3-[(2,5-difluorobenzyl)sulfanyl][1,2,4]triazolo[4,3-a]pyrimidin-7 (8H)-one]: the figures for the IC50 in assay [1] and in assay [2] were 1.32 µM and 1.04 µM, respectively.
In assay [1], `CCCc1cc(=O)[nH]c2nnc(SCc3cccc(C#N)c3)n12` [Compound 7, 3-{[(7-oxo-5-propyl-7,8-dihydro[1,2,4]triazolo[4,3-a]pyrimidin-3-yl)sulfanyl]methyl}benzonitrile] returned an IC50 of 10.2 µM.
On to `CC(C)Cc1cc(=O)[nH]c2nnc(SCc3c(F)cccc3Cl)n12` [Compound 40, 3-[(2-chloro-6-fluorobenzyl)sulfanyl]-5-(2-methylpropyl) [1,2,4]triazolo[4,3-a]pyrimidin-7 (8H)-one], for which the IC50 in assay [1] worked out at 0.391 µM; in assay [2], 0.218 µM.
Regarding `CCCc1cc(=O)[nH]c2nnc(SCc3ccoc3)n12` [Compound 15, 3-[(furan-3-ylmethyl)sulfanyl]-5-propyl[1,2,4]triazolo[4,3-a]pyrimidin-7 (8H)-one], in assay [1], the IC50 stood at 2.09 µM.
The same measure, in the same setting: as for `Cc1cc(=O)[nH]c2nnc(SCc3ccc(Cl)cc3)n12` [Compound 85, 3-[(4-chlorobenzyl)sulfanyl]-5-methyl[1,2,4]triazolo[4,3-a]pyrimidin-7 (8H)-one], the figure is 12.5 µM.

Source of the values: US20240360143A1, “[1,2,4]TRIAZOLO[4,3-A]PYRIMIDIN-7(8H)-ONE AS MITOCHONDRIAL PYRUVATE CARRIER INHIBITORS FOR USE IN THE TREATMENT OF CANCER” (MPC THERAPEUTICS SA, priority 2021, published 2024).
